Results reported in patent US12091411B2, “IRAK degraders and uses thereof” (Kymera Therapeutics, Inc., priority 2022, dated 2024).
Where two headings read alike, the source gives them in different places.

Molecular target: T1, IRAK4 (Homo sapiens, UniProt Q9NWZ3)
T1 construct: Degradation of IRAK4 in OCI-LY10 was quantitatively measured using Meso Scale Discovery technology; endogenous in cells; host or cells: OCI-LY10
T1 sequence (Q9NWZ3 1-460): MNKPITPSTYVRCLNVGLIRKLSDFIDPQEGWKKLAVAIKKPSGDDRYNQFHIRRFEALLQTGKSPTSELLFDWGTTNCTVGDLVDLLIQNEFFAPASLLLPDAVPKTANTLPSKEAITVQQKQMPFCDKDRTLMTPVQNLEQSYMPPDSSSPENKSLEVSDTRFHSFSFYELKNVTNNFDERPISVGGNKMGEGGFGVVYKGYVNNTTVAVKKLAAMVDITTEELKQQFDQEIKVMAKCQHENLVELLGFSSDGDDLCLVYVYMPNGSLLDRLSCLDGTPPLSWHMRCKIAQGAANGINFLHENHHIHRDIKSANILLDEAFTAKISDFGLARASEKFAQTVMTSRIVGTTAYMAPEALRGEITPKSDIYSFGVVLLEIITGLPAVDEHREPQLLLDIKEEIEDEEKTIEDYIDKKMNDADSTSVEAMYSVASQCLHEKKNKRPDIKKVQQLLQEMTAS
Test: IRAK4 MSD Degradation in OCI-LY10
Type: cell-based
Settings: OCI-LY10 cells
In short: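 OCI-LY10 cells exposed to 8-point 1:3 compound series (top 1 to 10 μM) for 4 to 24 h at 37 °C, 5% CO2. Lysate IRAK4 quantified by MSD sandwich immunoassay. DC50 from three-parameter logistic fit, binned A (<0.01 μM) to D (>0.2 μM or not tested).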

[1] = 4 hrs incubation, MSD, read-out: IRAK4 degradation in OCI-LY10 at 4 hrs: DC50
[2] = 24 hrs incubation, MSD, read-out: IRAK4 degradation in OCI-LY10 at 24 hrs: DC50
[3] = 4 hrs incubation, read-out: IRAK4 degradation in OCI-LY10 at 4 hrs: DC50
[4] = 24 hrs incubation, read-out: IRAK4 degradation in OCI-LY10 at 24 hrs: DC50

Row | DC50 [1] | DC50 [2] | DC50 [3] | DC50 [4] | SMILES
1 | > 200 nM | > 200 nM |  |  | COc1nc(NC(=O)c2cccc(C(F)(F)F)n2)cc2cn([C@H]3CC[C@H](CN4CC[C@H](c5cccc6c5n(C)c(=O)n6C5CCC(=O)NC5=O)[C@@H](F)C4)CC3)nc12 (some centres unmarked) [I-774]
2 | > 200 nM | > 200 nM |  |  | COc1nc(NC(=O)c2cccc(C)n2)cc2cn([C@H]3CC[C@H](CN4CC[C@@H](c5cccc6c5n(C)c(=O)n6C5CCC(=O)NC5=O)[C@H](F)C4)CC3)nc12 (some centres unmarked) [I-775]
3 | > 200 nM | > 200 nM |  |  | Cn1c(NC(=O)c2cccc(C(F)(F)F)n2)cc2cn([C@H]3CC[C@H](CN4CC[C@@H](c5cccc6c5n(C)c(=O)n6C5CCC(=O)NC5=O)[C@H](F)C4)CC3)nc2c1=O (some centres unmarked) [I-776]
4 | > 200 nM | > 200 nM |  |  | Cn1c(=O)n(C2CCC(=O)NC2=O)c2cccc(N3CCC(C[C@H]4CC[C@H](n5cc6cc(NC(=O)c7cccc(C(F)(F)F)n7)ncc6n5)CC4)CC3)c21 (some centres unmarked) [I-777]
5 | > 200 nM | > 200 nM |  |  | O=C1CCC(c2ccc(N3CC(CN4CCN(C[C@H]5CC[C@H](n6cc(NC(=O)c7cnn8ccc(N9C[C@H]%10C[C@@H]9CO%10)nc78)c(C(F)F)n6)CC5)CC4)C3)cc2Cl)C(=O)N1 (some centres unmarked) [I-778]
6 | > 200 nM | > 200 nM |  |  | O=C1CCC(c2ccc(N3CC(N4CCN([C@H]5CC[C@H](n6cc(NC(=O)c7cnn8ccc(N9C[C@H]%10C[C@@H]9CO%10)nc78)c(C(F)F)n6)CC5)CC4)C3)cc2Cl)C(=O)N1 (some centres unmarked) [I-779]
7 | > 200 nM | > 200 nM |  |  | O=C1CCC(c2ccc([C@H]3C[C@H](CO[C@H]4CCN(C[C@H]5CC[C@H](n6cc(NC(=O)c7cnn8ccc(N9C[C@H]%10C[C@@H]9CO%10)nc78)c(C(F)F)n6)CC5)C[C@H]4F)C3)cc2Cl)C(=O)N1 (some centres unmarked) [I-780]
8 | > 200 nM | > 200 nM |  |  | COc1cc2nn([C@H]3CC[C@H](CN4CC[C@@H](c5cccc6c5n(C)c(=O)n6C5CCC(=O)NC5=O)[C@H](F)C4)CC3)cc2cc1NC(=O)c1cccc(C(F)(F)F)n1 (some centres unmarked) [I-783]
9 | > 200 nM | > 200 nM |  |  | COc1cc2nn([C@H]3CC[C@H](CN4CC[C@H](c5cccc6c5n(C)c(=O)n6C5CCC(=O)NC5=O)[C@@H](F)C4)CC3)cc2cc1NC(=O)c1cccc(C(F)(F)F)n1 (some centres unmarked) [I-784]
10 | > 200 nM | > 200 nM |  |  | Cn1c(=O)n(C2CCC(=O)NC2=O)c2cccc(N3CC(CCC4(F)CN(C[C@H]5CC[C@H](n6cc(NC(=O)c7cnn8ccc(N9C[C@H]%10C[C@@H]9CO%10)nc78)c(C(F)F)n6)CC5)C4)C3)c21 (some centres unmarked) [I-785]
11 | > 200 nM |  |  |  | Cn1c(=O)n(C2CCC(=O)NC2=O)c2cccc(N3CCC(OC[C@H]4CC[C@H](n5cc(NC(=O)c6cnn7cccnc67)c(C(F)F)n5)CC4)CC3)c21 (some centres unmarked) [I-786]
12 | > 200 nM | > 200 nM |  |  | CN(CC1(F)CCN(c2cccc3c2n(C)c(=O)n3C2CCC(=O)NC2=O)CC1)C1CCC(n2cc3cc(NC(=O)c4cccc(C(F)(F)F)n4)ncc3n2)CC1 (centres unmarked) [I-787]
13 | > 200 nM | > 200 nM |  |  | CN(CC1(F)CCN(c2cccc3c2n(C)c(=O)n3C2CCC(=O)NC2=O)CC1)C1CCC(n2cc3cc(NC(=O)c4cccc(C(F)(F)F)n4)ccc3n2)CC1 (centres unmarked) [I-788]
14 | > 200 nM | > 200 nM |  |  | Cn1c(=O)n(C2CCC(=O)NC2=O)c2cccc(N3CC(F)(CN(C)[C@H]4CC[C@H](n5cc6cc(NC(=O)c7cccc(C(F)(F)F)n7)ncc6n5)CC4)C3)c21 (some centres unmarked) [I-789]
15 | > 200 nM | > 200 nM |  |  | Cn1c(=O)n(C2CCC(=O)NC2=O)c2cccc(N3CC(F)(CN(C)[C@H]4CC[C@H](n5cc6cc(NC(=O)c7cccc(C(F)(F)F)n7)ccc6n5)CC4)C3)c21 (some centres unmarked) [I-790]
16 | > 200 nM | > 200 nM |  |  | Cn1c(=O)n(C2CCC(=O)NC2=O)c2cccc(N3CCC(O[C@H]4CC[C@H](n5cc6cc(NC(=O)c7cccc(C(F)(F)F)n7)ncc6n5)CC4)CC3)c21 (some centres unmarked) [I-791]
17 | > 200 nM | > 200 nM |  |  | Cn1c(=O)n(C2CCC(=O)NC2=O)c2cccc(N3CCC(O[C@H]4CC[C@H](n5cc6cc(NC(=O)c7cccc(C(F)(F)F)n7)ccc6n5)CC4)CC3)c21 (some centres unmarked) [I-792]
18 | > 200 nM | > 200 nM |  |  | Cn1c(=O)n(C2CCC(=O)NC2=O)c2cccc(N3CCC(O[C@H]4CC[C@H](n5cc6cc(NC(=O)c7cccc(C(F)(F)F)n7)ncc6n5)CC4)C3)c21 (some centres unmarked) [I-793]
19 |  |  | > 200 nM | > 200 nM | Cn1c(=O)n(C2CCC(=O)NC2=O)c2cccc(N3CCC(O[C@H]4CC[C@H](n5cc6cc(NC(=O)c7cccc(C(F)(F)F)n7)ccc6n5)CC4)C3)c21 (some centres unmarked) [I-794]
20 |  |  | > 200 nM | > 200 nM | Cn1c(=O)n(C2CCC(=O)NC2=O)c2cccc(N3CC(O[C@H]4CC[C@H](n5cc6cc(NC(=O)c7cccc(C(F)(F)F)n7)ncc6n5)CC4)C3)c21 (some centres unmarked) [I-795]
21 |  |  | > 200 nM | > 200 nM | Cn1c(=O)n(C2CCC(=O)NC2=O)c2cccc(N3CC(O[C@H]4CC[C@H](n5cc6cc(NC(=O)c7cccc(C(F)(F)F)n7)ccc6n5)CC4)C3)c21 (some centres unmarked) [I-796]
